Test results taken from PMC6994419, “UDP-N-acetyl-α-D-galactosamine:polypeptide N-acetylgalactosaminyltransferase from the snail Biomphalaria glabrata – structural reflections” (Glycoconjugate Journal, 2019).

Experiments:
Bge-ppGalNAcT = target: T1, Bge-ppGalNAcT (Biomphalaria glabrata, UniProt S5S833); test: GalNAc transfer to acceptor peptide, reversed-phase HPLC at […] nm; assay type: biochemical; conditions: 40 nmol UDP-GalNAc in 20 μl, 10 mM MnCl2, 50 mM MES pH 7.0, 37 °C, 90 min, acceptor peptide 20 μg
T1 construct: without cytoplasmic tail and transmembrane domain (amino acids 1-26 removed); catalytic plus lectin domain

ΔppGalNAcT = target: T2, ΔppGalNAcT (Biomphalaria glabrata, UniProt S5S833); test: as above; assay type: biochemical; conditions: 40 nmol UDP-GalNAc in 20 μl, 10 mM MnCl2, 50 mM MES pH 7.0, 37 °C, 90 min, acceptor peptide 20 μg
T2 construct: catalytic part only: amino acids 1-26 and the lectin domain (477-600) removed; Sf9 insect cells, purified
T2 sequence (S5S833 27-476, stated change not applied): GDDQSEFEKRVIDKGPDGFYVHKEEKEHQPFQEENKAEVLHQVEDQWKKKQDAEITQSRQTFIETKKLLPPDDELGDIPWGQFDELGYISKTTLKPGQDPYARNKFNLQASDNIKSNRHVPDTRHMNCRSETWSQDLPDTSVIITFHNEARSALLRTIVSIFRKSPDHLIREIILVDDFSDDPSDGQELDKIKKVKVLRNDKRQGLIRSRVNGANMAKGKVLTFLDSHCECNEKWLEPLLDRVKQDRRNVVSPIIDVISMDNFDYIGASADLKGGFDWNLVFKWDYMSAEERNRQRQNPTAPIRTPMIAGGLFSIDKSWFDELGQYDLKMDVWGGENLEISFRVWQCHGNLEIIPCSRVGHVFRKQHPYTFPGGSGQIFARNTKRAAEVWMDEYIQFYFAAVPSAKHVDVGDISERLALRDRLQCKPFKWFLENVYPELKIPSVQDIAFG

T1 sequence (S5S833 27-600): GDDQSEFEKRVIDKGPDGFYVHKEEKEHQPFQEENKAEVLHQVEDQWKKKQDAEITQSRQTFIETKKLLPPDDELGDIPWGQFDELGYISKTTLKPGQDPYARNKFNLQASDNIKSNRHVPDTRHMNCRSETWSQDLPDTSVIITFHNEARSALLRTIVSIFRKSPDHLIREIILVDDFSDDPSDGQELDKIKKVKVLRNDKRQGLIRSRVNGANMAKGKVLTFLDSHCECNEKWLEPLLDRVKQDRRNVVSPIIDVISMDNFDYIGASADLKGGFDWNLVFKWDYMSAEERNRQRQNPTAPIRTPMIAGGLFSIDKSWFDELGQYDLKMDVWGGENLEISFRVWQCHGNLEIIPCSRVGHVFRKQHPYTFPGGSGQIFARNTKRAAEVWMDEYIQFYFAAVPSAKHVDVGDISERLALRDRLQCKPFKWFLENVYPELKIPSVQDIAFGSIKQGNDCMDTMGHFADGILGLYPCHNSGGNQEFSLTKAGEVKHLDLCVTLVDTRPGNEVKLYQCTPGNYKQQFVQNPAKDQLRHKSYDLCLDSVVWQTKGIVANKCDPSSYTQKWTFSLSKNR

O=c1ccn([C@@H]2O[C@H](COP(=O)(O)OP(=O)(O)O)[C@@H](O)[C@H]2O)c(=O)[nH]1 [UDP]
activity at 0.05-0.75 mM UDP (Bge-ppGalNAcT): Only for UDP an inhibition effect was experimentally observed. | activity at 0.05-0.75 mM UDP (ΔppGalNAcT): No significant differences between the enzyme expressed with lectin domain and the version without
